The values that follow come from US10919889B2, “Chiral heterocyclic compound with hedgehog pathway antagonist activity, method and use thereof” (SUZHOU KINTOR PHARMACEUTICALS, INC., priority 2016, dated 2021).

Like-named read-outs stand apart in the source and are kept apart here.

A short description of series [1]: Rat pharmacokinetics experiments. The format is in vivo, Sprague-Dawley rats. Conditions: for AUC(0-t): read-out: Area under the curve AUC0-24 h; for bioavailability: po. The procedure: Male Spraguee-Dawley rats (body weight: 220 g˜250 g) were purchased from Slac Laboratory Animals (Shanghai). […] Blood samples were taken through the posterior orbital vein and the blood samples were placed in a tube containing EDTA (as an anticoagulant) and stored in a −80° C. environment after centrifugation with a refrigerated centrifuge. Blood sample (at an amount of folds of 25 μL) was taken and cold acetonitrile containing the internal standard (100 μL) was added. Sample was centrifuged for 10 minutes to precipitate the plasma protein. Finally, supernatant (10 μL) was injected into the LC-MS/MS system for analysis.
LC-MS/MS analysis method: All samples were analyzed by LC-MS/MS system of API4000 QTRAP mass spectrometer equipped with LC-20AD and CBM-20A controllers, DGU-20A solvent degasser and SIL-20A autosampler (Japan Shimadzu, Colombia, Md., USA). A Bona Aeger Venusil XBP C18 column (50×2.1 mm; filler 5 micron particle size) was used for HPLC separation. The column temperature was maintained at 40° C. The flow rate was 0.3 mL/min and the total run time was 6 minutes.
For the quantification of MS/MS, the API4000 QTRAP mass spectrometer was operated in an ESI positive mode with multiple reaction monitoring (MRM). All compounds and internal standards were set to be monitored during a residence time of 100 milliseconds. The other MS/MS parameters were set as follows: atomization gas (GS1) at 30 psi, 551b turbine pressure, 4500V ion spray voltage, 500° C. ion source temperature. For the selected ion transitions, each analyte was tested at the optimal sensitivity of the cluster potential (DP) and the collision energy (CE). Finally, the data was collected and processed using AB SCIEX Analysist 1.5.2 data collection and integration software.
Test subjects, Sprague-Dawley rats (body weight from about 220 g to about 250 g), were purchased from Slac Laboratory Animals (Shanghai, China). All compounds tested at 1 mg/mL concentration, either intravenous injected at a tail vein at 1 mL/kg dosage for one group of test subjects or administered orally at a dose of 10 mL/kg in another group of test subjects. Then aliquots of blood samples were collected by retro-orbital venous plexus puncture at time intervals after the injection/administration. The blood samples were kept in tubes containing EDTA, centrifuged and stored at −80° C. before analysis. Blank plasma was collected by the same method before rats were treated with compounds. Plasma samples for analysis were obtained by removing about 25 μL from the saved blood sample; adding cold acetonitrile (about 100 μL) as internal standard; centrifuged for 10 minutes to precipitate plasma proteins; and collect about 10 μL of the upper clear solution for analysis done by an LC-MS/MS system.
All samples were analyzed by an API 4000 QTRAP® LC/MS/MS System equipped with Shimadzu LC-20AD pump, Shimadzu CBM-20A controller, SIL-20A autosampler and DGU-20A degasser (Shimadzu, Columbia, Md., USA). A Venusil XBP C18 HPLC Column (2.1×50 mm, 5 μm) (Bonna-Agela Technologies) was used for HPLC separation at isocratic temperature of 40° C. Flow rate was kept at 0.3 mL/min and the total run time was kept at 6 minutes.
Quantification by MS/MS is done using the above-described API 4000 QTRAP mass spectrometer equipped with multiple reaction monitoring (MRM) and positive electrospray ionization (ESI+) modes. All compounds and internal standard were detected at […] of about 100 milliseconds. Other parameters for MS/MS are shown below: Ion Source Gas 1 (GS1) at 30 psi, turbine pressure at 55 pounds, ion spray voltage at 4500 V, and ion source temperature at 500° C. MRM measurements of the analytes were performed using declustering potential (DP) and […] values optimized for each analyte. Finally, all of the operations, the acquisition and analysis of data were controlled by Analyst (version 1.5.2, AB Sciex, USA).

Series [2] concerns Hh signaling pathway. Conditions: previous patent; read-out: IC50 of NIH3T3-GRE-Luc, reported in WO2014113191A1; cited from earlier work.
Series [3] can be described thus: Oxidative metabolism found in pharmacokinetic studies. Conditions: benzylic oxidation at the C-5 methylene group.
Series [4] deals with T1, WT-Smo (Homo sapiens, UniProt Q99835).
T1 construct: HA; expressed in transfected cells
The series can be described thus: Bodipy-Cyclopamine binding assay. Conditions: used in the Cheng-Prusoff equation. The method, then:
Bodipy-Cyclopamine binding assay is a fluorescence based assay used to analysis the binding of Smo agonists. Hek293-SMO stable clones were established by puromycin (1 ug/ml, Invitrogen) selection after transfection with SMO-HA-pLVX plasmid Hek293-SMO cells were maintained in complete culture medium (DMEM with 4 mM L-Gln, 1.5 g/L sodium bicarbonate and 4.5 g/L glucose supplemented with 100 ug/ml hygromycin and 10% FBS). The expression of SMO was validated with western blot and cell immunofluorescence. Bodipy-Cyclopamine was purchased from Toronto Research Chemicals and dissolved in methanol.
Hek293-SMO cells were plated in 96-well-plate (3340, Corning), the final cell concentration is 15,000 cells/well in 100 ul 1% serum-containing DMEM. The plates were incubated in 37 degree for additional 48 hours.
Hek293-SMO plate were washed with PBS and fixed with 4% paraformaldehyde (PFA)/PBS for 20 min at room temperature. After removing the PFA buffer, the cells were incubated with DAPI/PBS (5 ug/mL) for 10 min and followed by twice wash with PBS. […] The fluorescence images were automatically captured and analyzed by a high content fluorescence imaging system (Arrayscan VTI, Thermo). […] IC50 values were calculated with GraphPad Prism software using the sigmoidal dose-response function. The Ki was calculated following the Cheng-Prusoff equation, as Ki=IC50/[1+[bodipy-cyclopamine]/Kd)].

Broadly, the clearance is the rate of elimination divided by the concentration. Broadly, the Tmax is the time at which the peak concentration occurs. Broadly, the IC50 is the concentration that gives 50% inhibition. By Kd is commonly meant the equilibrium constant for the complex coming apart. A higher Kd goes with lower affinity.

T1 sequence (Q99835 28-787): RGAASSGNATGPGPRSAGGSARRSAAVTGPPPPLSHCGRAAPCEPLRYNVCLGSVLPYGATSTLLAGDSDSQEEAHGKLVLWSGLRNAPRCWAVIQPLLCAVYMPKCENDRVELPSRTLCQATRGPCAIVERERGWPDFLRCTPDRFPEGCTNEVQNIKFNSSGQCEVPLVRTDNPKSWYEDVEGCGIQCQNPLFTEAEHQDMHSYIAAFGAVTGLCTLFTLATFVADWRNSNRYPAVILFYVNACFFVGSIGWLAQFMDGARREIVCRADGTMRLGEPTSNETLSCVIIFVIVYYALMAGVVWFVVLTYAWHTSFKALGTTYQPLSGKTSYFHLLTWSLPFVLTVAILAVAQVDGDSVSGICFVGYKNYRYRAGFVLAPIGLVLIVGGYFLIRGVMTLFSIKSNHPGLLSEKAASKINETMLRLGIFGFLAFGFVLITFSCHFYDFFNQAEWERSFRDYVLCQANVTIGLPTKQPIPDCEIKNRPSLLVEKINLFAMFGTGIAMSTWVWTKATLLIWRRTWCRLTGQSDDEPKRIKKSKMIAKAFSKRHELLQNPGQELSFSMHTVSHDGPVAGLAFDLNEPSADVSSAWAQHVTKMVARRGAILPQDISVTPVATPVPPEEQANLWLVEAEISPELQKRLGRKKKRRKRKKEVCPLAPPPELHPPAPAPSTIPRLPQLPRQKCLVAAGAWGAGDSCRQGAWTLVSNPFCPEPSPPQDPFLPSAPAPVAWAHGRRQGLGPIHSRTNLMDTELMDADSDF

For `Cc1cnc(-c2cc(N3CCc4nc(N5CCC(O)CC5)ncc4C3)ncc2Cl)c(C)c1` [Compound A-55, reference compound], the AUC0-24 h turned out to be 1780 ng·h/mL in series [1] (I.V., 2 mg/kg) and 5540 ng·h/mL in series [1] (P.O., 10 mg/kg). This compound also came in with a CL in series [1] (I.V., 2 mg/kg) of 18.6 mL/min/kg. The same compound yielded a t1/2 in series [1] (I.V., 2 mg/kg) of 1 h. Also, the Vd in series [1] (male, Sprague-Dawley, plasma, intravenous injection, 2 mg/kg, read-out: Apparent volume of distribution Vd, ss) is 1.7 L/kg. Further, the AUC(0-t) came to 1780 ng·h/mL in series [1] (male, Sprague-Dawley, plasma, intravenous injection, 2 mg/kg) and 5540 ng·h/mL in series [1] (male, Sprague-Dawley, plasma, oral, 10 mg/kg). Besides, in series [1] (male, Sprague-Dawley, plasma, intravenous injection, 2 mg/kg, read-out: Clearance CL), the clearance came out at 18.6 mL/min/kg. Also, in series [1] (male, Sprague-Dawley, plasma, intravenous injection, 2 mg/kg, read-out: Half-life t1/2 (converted)), the half-life is 1 h. In addition, the Cmax in series [1] (male, Sprague-Dawley, plasma, oral, 10 mg/kg, read-out: Maximum plasma concentration Cmax) came to 2180 ng/mL. In addition, in series [1] (male, Sprague-Dawley, plasma, oral, 10 mg/kg, read-out: Peak time Tmax), the Tmax stood at 0.5 h. Moreover, the bioavailability was determined as 62% in series [1] (male, Sprague-Dawley, plasma, 10 mg/kg, P.O. 10 mg/kg vs I.V. 2 mg/kg, read-out: F %); 62% in series [1] (male, Sprague-Dawley, plasma, 10 mg/kg, oral 10 mg/kg vs intravenous 2 mg/kg, read-out: Bioavailability F %); 62% in series [1] (male, Sprague-Dawley, plasma, 10 mg/kg, oral, read-out: bioavailability). In series [2], the IC50 was 5.5 nM. For the same compound, the “susceptibility to oxidative metabolism (in words)” value in series [3] is “easy to metabolized via benzylic oxidation”.
The compound `CC1=C2CC3C(CC=C4C[C@@H](O)CCC43C)C2CCC12O[C@@H]1CC(C)CN(CCNC(=O)CCCCCNC(=O)CCC3=[N+]4C(=Cc5c(C)cc(C)n5[B-]4(F)F)C=C3)C1C2C` (some centres unmarked) [bodipy-cyclopamine] had a Kd in series [4] of 3.5 ± 0.8 nM.
